Test results reported in PubChem BioAssay (NCI).
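Test compounds were applied to cells in 96-well plates for 48 hours at 5 doses. Definition used: TGI = concentration required for complete inhibition of growth.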

Columns and labels:
Assay in all cases: growth of human tumour cells (NCI), 48 h
[1] = test system: OVCAR-3 ovarian
[2] = test system: UACC-257 melanoma
[3] = test system: M19-MEL melanoma
[4] = test system: NCI-H226 lung
[5] = test system: SF-295 CNS
[6] = test system: SK-MEL-28 melanoma
[7] = test system: SNB-19 CNS
[8] = test system: LOX IMVI melanoma
[9] = test system: K-562 leukemia
[10] = test system: U251 CNS
[11] = test system: MOLT-4 leukemia
[12] = test system: HCT-116 colon
[13] = test system: SK-OV-3 ovarian
[14] = test system: NCI-H522 lung
[15] = test system: OVCAR-8 ovarian
[16] = test system: UO-31 renal
[17] = test system: NCI-H460 lung
[18] = test system: ACHN renal
[19] = test system: IGROV1 ovarian
[20] = test system: UACC-62 melanoma
[21] = test system: KM12 colon
[22] = test system: A549 NSCLC
[23] = test system: COLO 205 colon
[24] = test system: KM20L2 colon
[25] = test system: HT29 colon
[26] = test system: DLD-1 colon
[27] = test system: M14 melanoma
[28] = test system: SNB-78 CNS
[29] = test system: SF-539 CNS
[30] = test system: OVCAR-4 ovarian
[31] = test system: HOP-62 NSCLC
[32] = test system: SNB-75 CNS
[33] = test system: SW-620 colon
[34] = test system: NCI-H23 lung
[35] = test system: SF-268 CNS
[36] = test system: HOP-92 NSCLC
[37] = test system: TK-10 renal
[38] = test system: 786-0 renal
[39] = test system: OVCAR-5 ovarian
[40] = test system: LXFL 529 NSCLC
[41] = test system: MDA-N
[42] = test system: RPMI-8226 leukemia
[43] = test system: CAKI-1 renal
[44] = test system: SR leukemia
[45] = test system: SK-MEL-2 melanoma
[46] = test system: SN12C renal
[47] = test system: HL-60(TB) leukemia
[48] = test system: HS 578T breast
[49] = test system: CCRF-CEM leukemia
[50] = test system: A498 renal
[51] = test system: MCF7 breast
[52] = test system: DU-145 prostate
[53] = test system: T-47D breast
[54] = test system: SK-MEL-5 melanoma
[55] = test system: MALME-3M melanoma
[56] = test system: HCC-2998 colon
[57] = test system: NCI/ADR-RES ovarian
[58] = test system: RXF 393 renal
[59] = test system: MDA-MB-435
[60] = test system: PC-3 prostate
[61] = test system: HCT-15 colon
[62] = test system: MDA-MB-231 breast
[63] = test system: EKVX NSCLC
[64] = test system: BT-549 breast

Measured: TGI

Oc1ccccc1-c1n[nH]c(=S)n1/N=C/c1ccc(-c2ccc(Br)cc2)o1
> 100 µM: [3] | [5] | [6] | [9] | [11] | [12] | [14] | [17] | [21] | [22] | [23] | [24] | [25] | [26] | [27] | [29] | [31] | [32] | [33] | [35] | [38] | [39]
66.2 µM: [16]
75.2 µM: [28]
80.5 µM: [1]
47.8 µM: [36]
92.6 µM: [19]
40.3 µM: [20]
56.1 µM: [7]
95.1 µM: [13]
56.7 µM: [8]
50.5 µM: [30]
51.1 µM: [37]
43.1 µM: [34]
59.6 µM: [2]
90.1 µM: [15]
71.4 µM: [40]
56.5 µM: [10]
52.2 µM: [4]
92 µM: [18]

CC12CCC(C(Nc3ccccn3)C1=O)C2(C)C (centres undefined)
not listed: [3] | [24] | [26] | [28] | [40]
> 100 µM: all other assays above
